The values below come from patent US9845297B2, “Antimicrobial compounds and methods of making and using the same” (Melinta Therapeutics, Inc., priority 2009, dated 2017).

For this assay, the system named is Eschericia coli strain ATCC25922. The assay can be described thus: standard microdilution assay to determine minimum inhibitory concentrations (MICs). The class given is cell-based. The note with it: Escherichia coli, ATCC25922, Eschericia coli strain ATCC25922, standard microdilution assay; read-out: E. coli ATCC25922 MIC. In a few lines: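 Broth microdilution per CLSI protocols, typically 100 µL final volume, against E. coli ATCC25922. MIC values scored as +/− against a cutoff of 16 micrograms/ml.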
(In general: In broth dilution the organism is exposed to a series of concentrations in liquid medium.)

For orientation: MIC means the lowest concentration that inhibits growth of the organism. As for `N=C(N)NCCCN(CCCN)Cc1ccc(-c2c[nH]c(NC(=O)Nc3ccccc3OC(F)(F)F)nc2=O)cc1` [Compound 349], the MIC is < 16 µg/mL.

Regarding `N=C(N)NCCCNCc1ccc(-c2c[nH]c(NC(=O)Nc3cc(F)c(F)cc3F)nc2=O)cc1` [Compound 350], the minimum inhibitory concentration (MIC) was < 16 µg/mL.

Take `NCCCN(CCCN)Cc1ccc(-c2c[nH]c(Nc3nc4ccccc4[nH]3)nc2=O)cc1F` [Compound 351]: the MIC is < 16 µg/mL.

`CN(CCCNCc1ccc(-c2c[nH]c(NC(=O)Nc3cc(F)c(F)cc3F)nc2=O)cc1)C(=N)N` [Compound 353]: the MIC is > 16 µg/mL.

Take `NCCCN(CCc1ccncc1)Cc1ccc(-c2c[nH]c(NC(=O)Nc3cc(F)c(F)cc3F)nc2=O)cc1` [Compound 354]: the MIC is > 16 µg/mL.

`NCCCN(CCCCO)Cc1ccc(-c2c[nH]c(NC(=O)Nc3ccccc3OC(F)(F)F)nc2=O)cc1` [Compound 355]: the MIC was < 16 µg/mL.

`NCCCN(CCCN)Cc1ccc(-c2c[nH]c(Nc3nc4cc(F)c(F)cc4o3)nc2=O)cc1F` [Compound 356]: the MIC was < 16 µg/mL.

On to `NCCCN(CCCN)Cc1ccc(-c2c[nH]c(Nc3nc4cc(C(F)(F)F)ccc4s3)nc2=O)cc1F` [Compound 357], for which the MIC was > 16 µg/mL.

On to `NCCCN(CCCC(=O)O)Cc1ccc(-c2c[nH]c(NC(=O)Nc3cc(F)c(F)cc3F)nc2=O)cc1` [Compound 358], for which the MIC is > 16 µg/mL.

As for `NCCCN(CCCC(=O)O)Cc1ccc(-c2c[nH]c(NC(=O)Nc3ccccc3OC(F)(F)F)nc2=O)cc1` [Compound 359], the minimal inhibitory concentration (MIC) was > 16 µg/mL.

For the molecule `COc1ccc2nc(Nc3nc(=O)c(-c4ccc(CN(CCCN)CCCN)c(F)c4)c[nH]3)[nH]c2c1` [Compound 361], the minimum inhibitory concentration (MIC) is < 16 µg/mL.

Regarding `NCCCN(CCCN)Cc1ccc(-c2c[nH]c(Nc3nc4ccccc4o3)nc2=O)cc1F` [Compound 363], the MIC is > 16 µg/mL.

Regarding `O=C(Nc1nc(=O)c(-c2ccc(CNCCCc3cccnc3)cc2)c[nH]1)Nc1ccccc1OC(F)(F)F` [Compound 364], the minimum inhibitory concentration (MIC) is > 16 µg/mL.

As to `CN(CCCN(CCCN)Cc1ccc(-c2c[nH]c(NC(=O)Nc3ccccc3OC(F)(F)F)nc2=O)cc1)C(=N)N` [Compound 365], the MIC is < 16 µg/mL.

Turning to `CN(CCCN(CCCN)Cc1ccc(-c2c[nH]c(NC(=O)Nc3cc(F)c(F)cc3F)nc2=O)cc1)C(=N)N` [Compound 366], the MIC is > 16 µg/mL.

Consider `O=C(Nc1nc(=O)c(CCN2CCNCC2)c[nH]1)Nc1ccccc1OC(F)(F)F` [Compound 368], for which the MIC is > 16 µg/mL.

For the molecule `NCCCN1CCN(CCc2c[nH]c(NC(=O)Nc3ccccc3OC(F)(F)F)nc2=O)CC1` [Compound 369], the MIC is > 16 µg/mL.

As for `COc1cc2nc(Nc3nc(=O)c(-c4ccc(CN(CCCN)CCCN)c(F)c4)c[nH]3)[nH]c2cc1OC` [Compound 370], the MIC is > 16 µg/mL.

For the molecule `NCCCN(CCCc1cccnc1)Cc1ccc(-c2c[nH]c(NC(=O)Nc3ccccc3OC(F)(F)F)nc2=O)cc1` [Compound 372], the MIC is > 16 µg/mL.

As for `O=C(Nc1nc(=O)c(-c2ccc(CNCCCc3cccnc3)cc2)c[nH]1)Nc1cc(F)c(F)cc1F` [Compound 373], the MIC was > 16 µg/mL.

On to `NC(=O)NCCCNCc1ccc(-c2c[nH]c(NC(=O)Nc3ccccc3OC(F)(F)F)nc2=O)cc1` [Compound 374], for which the MIC is > 16 µg/mL.

Turning to `NCCCNCc1ccc(-c2c[nH]c(Nc3ccccc3C(F)(F)F)nc2=O)cc1C(F)(F)F` [Compound 376], the MIC is > 16 µg/mL.

For the molecule `N[C@H]1CCN(CCc2c[nH]c(NC(=O)Nc3ccccc3OC(F)(F)F)nc2=O)C1` [Compound 381], the MIC was > 16 µg/mL.

For the molecule `NCCCNCc1ccc(-c2c[nH]c(Nc3ccc(C(F)(F)F)cc3)nc2=O)cc1C(F)(F)F` [Compound 382], the MIC was < 16 µg/mL.

For `NCCCN(CCCN)Cc1ccc(-c2c[nH]c(Nc3nc4ccccc4s3)nc2=O)cc1F` [Compound 383], the minimum inhibitory concentration (MIC) was > 16 µg/mL.

Take `NCCCN[C@@H]1CCN(CCc2c[nH]c(NC(=O)Nc3ccccc3OC(F)(F)F)nc2=O)C1` [Compound 384]: the MIC is > 16 µg/mL.

Consider `NCCCN[C@@H]1CCN(CCc2c[nH]c(NC(=O)Nc3cccc(Cl)c3Cl)nc2=O)C1` [Compound 385], for which the MIC was > 16 µg/mL.

On to `N#Cc1ccc(NC(=O)Nc2nc(=O)c(-c3ccc(CNCCCN)c(F)c3)c[nH]2)cc1` [Compound 386], for which the MIC is > 16 µg/mL.

Take `NCCCNCc1ccc(-c2c[nH]c(NC(=O)Nc3cc(Cl)cc(Cl)c3)nc2=O)cc1F` [Compound 387]: the minimal inhibitory concentration (MIC) was > 16 µg/mL.

`NCCCNCc1ccc(-c2c[nH]c(NC(=O)Nc3cc(Cl)c(Cl)cc3Cl)nc2=O)cc1F` [Compound 388]: the MIC is > 16 µg/mL.

In the case of `NCCCNCc1ccc(-c2c[nH]c(NC(=O)Nc3ccc(F)c([N+](=O)[O-])c3)nc2=O)cc1F` [Compound 389], the MIC is > 16 µg/mL.

Turning to `NCCCN(CCCNC(N)=O)Cc1ccc(-c2c[nH]c(NC(=O)Nc3ccccc3OC(F)(F)F)nc2=O)cc1` [Compound 394], the MIC was < 16 µg/mL.

With `NC(=O)NCCCNCc1ccc(-c2c[nH]c(NC(=O)Nc3cc(F)c(F)cc3F)nc2=O)cc1` [Compound 395], the MIC is > 16 µg/mL.

For `NCCCN(CCC1CC1)Cc1ccc(-c2c[nH]c(NC(=O)Nc3ccccc3OC(F)(F)F)nc2=O)cc1` [Compound 397], the MIC is > 16 µg/mL.

In the case of `N#CCCCN(CCCN)Cc1ccc(-c2c[nH]c(NC(=O)Nc3ccccc3OC(F)(F)F)nc2=O)cc1` [Compound 398], the MIC was > 16 µg/mL.

On to `NCCCN(CCCc1cccnc1)Cc1ccc(-c2c[nH]c(NC(=O)Nc3cc(F)c(F)cc3F)nc2=O)cc1` [Compound 399], for which the MIC was > 16 µg/mL.

For `NCCCN(CCC1CC1)Cc1ccc(-c2c[nH]c(NC(=O)Nc3cc(F)c(F)cc3F)nc2=O)cc1` [Compound 401], the minimal inhibitory concentration (MIC) is < 16 µg/mL.

Take `NCCCN(CCCN)Cc1ccc(-c2c[nH]c(Nc3nc4cc(C(F)(F)F)cc(Cl)c4o3)nc2=O)cc1F` [Compound 403]: the MIC was > 16 µg/mL.

As for `NCCCN(CCCN)Cc1ccc(-c2c[nH]c(Nc3nc4ccc(C(F)(F)F)cc4o3)nc2=O)cc1F` [Compound 404], the MIC was > 16 µg/mL.

As to `NCCCN1CCN(C(=O)Cc2c[nH]c(NC(=O)Nc3ccccc3OC(F)(F)F)nc2=O)CC1` [Compound 405], the MIC is > 16 µg/mL.

For `Cc1[nH]c(NC(=O)Nc2ccccc2OC(F)(F)F)nc(=O)c1CC(=O)N1CCN(CCCN)CC1` [Compound 406], the MIC was > 16 µg/mL.

For `NCCCN[C@H]1CCN(C(=O)Cc2c[nH]c(NC(=O)Nc3ccccc3OC(F)(F)F)nc2=O)C1` [Compound 407], the MIC was > 16 µg/mL.

As for `NCCCN1CCN(C(=O)Cc2c[nH]c(NC(=O)Nc3cccc(Cl)c3Cl)nc2=O)CC1` [Compound 408], the MIC was > 16 µg/mL.

For `O=C(Nc1nc(=O)c(CC(=O)N2CCNCC2)c[nH]1)Nc1ccccc1OC(F)(F)F` [Compound 409], the minimum inhibitory concentration (MIC) was > 16 µg/mL.

As for `N[C@@H]1CCN(C(=O)Cc2c[nH]c(NC(=O)Nc3ccccc3OC(F)(F)F)nc2=O)C1` [Compound 410], the MIC was > 16 µg/mL.

On to `NCCCNCc1ccc(-c2c[nH]c(Nc3nc4ccccc4[nH]3)nc2=O)cc1F` [Compound 412], for which the MIC is < 16 µg/mL.

Regarding `NCCCNCc1ccc(-c2c[nH]c(NC(=O)Nc3ccc(F)c(C(F)(F)F)c3)nc2=O)cc1F` [Compound 413], the MIC was > 16 µg/mL.

Consider `CCOc1ccc(NC(=O)Nc2nc(=O)c(-c3ccc(CNCCCN)c(F)c3)c[nH]2)c([N+](=O)[O-])c1` [Compound 414], for which the MIC is > 16 µg/mL.

For the molecule `COc1cc([N+](=O)[O-])ccc1NC(=O)Nc1nc(=O)c(-c2ccc(CNCCCN)c(F)c2)c[nH]1` [Compound 415], the MIC is > 16 µg/mL.

For the molecule `COc1ccc([N+](=O)[O-])cc1NC(=O)Nc1nc(=O)c(-c2ccc(CNCCCN)c(F)c2)c[nH]1` [Compound 416], the MIC was > 16 µg/mL.

Regarding `NCCCNCc1ccc(-c2c[nH]c(NC(=O)Nc3ccc(N4C(=O)C=CC4=O)cc3)nc2=O)cc1F` [Compound 417], the minimal inhibitory concentration (MIC) was > 16 µg/mL.

`NCCCNCc1ccc(-c2c[nH]c(NC(=O)Nc3cccc(-n4cccc4)c3)nc2=O)cc1F` [Compound 418]: the MIC was > 16 µg/mL.

On to `NCCCNCc1ccc(-c2c[nH]c(NC(=O)Nc3ccc(C(F)(F)F)cc3Cl)nc2=O)cc1F` [Compound 419], for which the MIC is < 16 µg/mL.

Regarding `NCCCNCc1ccc(-c2c[nH]c(NC(=O)NCCc3ccc(Cl)cc3Cl)nc2=O)cc1F` [Compound 420], the minimum inhibitory concentration (MIC) was < 16 µg/mL.

`NCCCNCc1ccc(-c2c[nH]c(NC(=O)NCCc3cccc(Cl)c3)nc2=O)cc1F` [Compound 421]: the MIC is > 16 µg/mL.

For `N=C(N)NCCCN1CCN(c2c[nH]c(NC(=O)Nc3ccccc3OC(F)(F)F)nc2=O)CC1` [Compound 422], the minimum inhibitory concentration (MIC) was > 16 µg/mL.

For the molecule `NCCCNCc1ccc(-c2c[nH]c(NC(=O)NCCc3ccc(Cl)cc3)nc2=O)cc1F` [Compound 423], the MIC is > 16 µg/mL.

Take `Cc1nc(-c2cccc(NC(=O)Nc3nc(=O)c(-c4ccc(CNCCCN)c(F)c4)c[nH]3)c2)cs1` [Compound 424]: the MIC is > 16 µg/mL.

In the case of `NCCCN1CCN(c2c[nH]c(NC(=O)Nc3ccccc3OC(F)(F)F)nc2=O)CC1` [Compound 425], the MIC is > 16 µg/mL.

For `CCS(=O)(=O)c1ccc2oc(Nc3nc(=O)c(-c4ccc(CN(CCCN)CCCN)c(F)c4)c[nH]3)nc2c1` [Compound 427], the minimum inhibitory concentration (MIC) is > 16 µg/mL.

As to `Cn1c(Nc2nc(=O)c(-c3ccc(CN(CCCN)CCCN)c(F)c3)c[nH]2)nc2ccccc21` [Compound 428], the minimal inhibitory concentration (MIC) is > 16 µg/mL.

As for `N=C(N)NCCCN1CCN(C(=O)Cc2c[nH]c(NC(=O)Nc3ccccc3OC(F)(F)F)nc2=O)CC1` [Compound 429], the MIC was > 16 µg/mL.

On to `N=C(N)NCCCNC1CCN(c2c[nH]c(NC(=O)Nc3ccccc3OC(F)(F)F)nc2=O)C1` (stereo not drawn) [Compound 431], for which the MIC was > 16 µg/mL.

In the case of `NCCCNCc1ccc(-c2c[nH]c(NC(=O)Nc3ccccc3OC(F)(F)F)nc2=O)c(F)c1` [Compound 432], the MIC is < 16 µg/mL.

With `NCCCNCc1ccc(-c2c[nH]c(NC(=O)Nc3cccc(Cl)c3Cl)nc2=O)c(F)c1` [Compound 433], the MIC is < 16 µg/mL.

On to `NCCCNCc1ccc(-c2c[nH]c(NC(=O)Nc3cc(F)c(F)cc3F)nc2=O)c(F)c1` [Compound 434], for which the MIC was > 16 µg/mL.
